24 molecules from patent US12145944B2, “Imidazopyrimidines as EED inhibitors and the use thereof” (THE REGENTS OF THE UNIVERSITY OF MICHIGAN, priority 2019, dated 2024) can be followed below.

Assay [1] concerns KARPAS422 human B cell lymphoma cell. Nature of the assay: Cell proliferation, KARPAS422, 7 day treatment (WST-8). The class given is cell-based. To be noted: Homo sapiens, KARPAS-422, 168 h. How it is done: (§1) “N/A” stands for “not assessed”.
Analysis of Cell Proliferation:
(§2) To assess the effect of PRC2 inhibition on cell growth, cells were seeded in 96-well cell culture plates at a density of 2 000-3 000 cells/well in 200 µL of culture medium, and treated with serially diluted compounds for 7 days at 37° C. in an atmosphere of 5% CO2. Cell growth was evaluated by a […] WST-8 assay (Dojindo Molecular Technologies) using a Tecan Infinite M1000 multimode microplate reader (Tecan, Morrisville, NC). The WST-8 reagent was added to the plate, incubated for 1-4 h, and read at 450 nm. The readings were normalized to the DMSO-treated cells, and the IC50 was calculated by nonlinear regression analysis using GraphPad Prism 6 software

For the next assay, the system named is Pfeiffer cell line. The assay can be described thus: Anti-proliferative activity, Pfeiffer cell line, 7 day treatment. The class given is cell-based. As to conditions: Homo sapiens, 168 h. As for the experimental part: as §1, §2
[2] abbreviates: anti-proliferative IC50, Karpas 422 cell line, 7 day treatment, read-out: Karpas Cell line.
Setting [3] is: anti-proliferative IC50, Pfeiffer cell line, 7 day treatment, read-out: Pfeiffer Cell line.
Where [4] appears, read: anti-proliferative IC50 class, Karpas 422 cell line, 7 day treatment, read-out: Karpas Cell line.
Setting [5] is: anti-proliferative IC50 class, Pfeiffer cell line, 7 day treatment, read-out: Pfeiffer Cell line.

Like-named read-outs stand apart in the source and are kept apart here.

In the case of `Fc1ccc2c(c1CNc1ncc3c4c(ncn14)COCc1ncccc1-3)CCO2` [Cpd. No. 2, N-((5-fluoro-2,3-dihydrobenzofuran-4-yl)methyl)-3H,5H-4-oxa-2,6,11,12a-tetraazabenzo[4,5]cycloocta[1,2,3-cd]inden-12-amine], the IC50 (in assay [1] (setting [2]); in the assay with Pfeiffer cell line (setting [3])) was above 100 nM in each case.
For `O=C1Nc2ccccc2-c2cnc(NCc3c(F)ccc4c3CCO4)n3cnc1c23` [Cpd. No. 3, 11-(((5-fluoro-2,3-dihydrobenzofuran-4-yl)methyl)amino)-2,4,10,11a-tetraazadibenzo[cd,f]azulen-3(4H)-one], the IC50 in the assay with Pfeiffer cell line (setting [3]) was determined as 84 nM.
In the case of `O=C1OCc2ncccc2-c2cnc(NCc3c(F)ccc4c3CCO4)n3cnc1c23` [Cpd. No. 12, 12-(((5-fluoro-2,3-dihydrobenzofuran-4-yl)methyl)amino)-3H,5H-4-oxa-2,6,11,12a-tetraazabenzo[4,5]cycloocta[1,2,3-cd]inden-3-one], the figures for the IC50 (in assay [1] (setting [2]); in the assay on Pfeiffer cell line (setting [3])) were 3.84 nM and 0.65 nM, respectively.
As for `O=C1NCc2ncccc2-c2cnc(NCc3c(F)ccc4c3CCO4)n3cnc1c23` [Cpd. No. 16, 12-(((5-fluoro-2,3-dihydrobenzofuran-4-yl)methyl)amino)-4,5-dihydro-3H-2,4,6,11,12a-pentaazabenzo[4,5]cycloocta[1,2,3-cd]inden-3-one], the figures for the IC50 (in assay [1] (setting [2]); with Pfeiffer cell line (setting [3])) were 14.7 nM and 3.39 nM, respectively.
In the case of `O=C1c2ncn3c(NCc4c(F)ccc5c4CCO5)ncc(c23)-c2cnc(C(F)(F)F)cc2CN1C1CC1` [Cpd. No. 36, 4-cyclopropyl-12-(((5-fluoro-2,3-dihydrobenzofuran-4-yl)methyl)amino)-7-(trifluoromethyl)-4,5-dihydro-3H-2,4,8,11,12a-pentaazabenzo[4,5]cycloocta[1,2,3-cd]inden-3-one], the IC50 in assay [1] (setting [2]) is 5.66 nM; in the assay on Pfeiffer cell line (setting [3]), 1.04 nM.
In the case of `Cc1ccc2c(n1)CS(=O)(=O)c1ncn3c(NCc4c(F)ccc5c4CCO5)ncc-2c13` [Cpd. No. 95, 11-(((5-fluoro-2,3-dihydrobenzofuran-4-yl)methyl)amino)-6-methyl-4H-3-thia-2,5,10,11a-tetraazadibenzo[cd,f]azulene 3,3-dioxide], the IC50 in assay [1] (setting [2]) was determined as 0.89 nM; in the assay with Pfeiffer cell line (setting [3]), 0.023 nM.
Take `CS(=O)(=O)c1ncn2c(NCc3c(F)ccc4c3CCO4)ncc(-c3ccccc3)c12` [Cpd. No. 99, N-((5-fluoro-2,3-dihydrobenzofuran-4-yl)methyl)-1-(methylsulfonyl)-8-phenylimidazo[1,5-c]pyrimidin-5-amine]: the IC50 in assay [1] (read-out: Karpas Cell line (nM)) worked out at 0.88 nM; in the assay on Pfeiffer cell line (Pfeiffer, read-out: Pfeiffer Cell line (nM)) it was 0.19 nM.
As for `Cc1ccc2c(n1)CN(C(C)C)C(=O)c1ncn3c(NCc4c(F)ccc5c4CCO5)ncc-2c13` [E 1, 12-(((5-fluoro-2,3-dihydrobenzofuran-4-yl)methyl)amino)-4-isopropyl-7-methyl-4,5-dihydro-3H-2,4,6,11,12a-pentaazabenzo[4,5]cycloocta[1,2,3-cd]inden-3-one], the IC50 (in assay [1] (setting [4]); with Pfeiffer cell line (setting [5])) was below 10 nM in each case.
In the case of `Cc1cc2c(cn1)-c1cnc(NCc3c(F)ccc4c3CCO4)n3cnc(c13)C(=O)N(C(C)C)C2` [E 2, 12-(((5-fluoro-2,3-dihydrobenzofuran-4-yl)methyl)amino)-4-isopropyl-7-methyl-4,5-dihydro-3H-2,4,8,11,12a-pentaazabenzo[4,5]cycloocta[1,2,3-cd]inden-3-one], the IC50 (in assay [1] (setting [4]); in the assay with Pfeiffer cell line (setting [5])) was below 10 nM throughout.
As to `CC(C)N1Cc2cc(C#N)ccc2-c2cnc(NCc3c(F)ccc4c3CCO4)n3cnc(c23)C1=O` [E 4, 12-(((5-fluoro-2,3-dihydrobenzofuran-4-yl)methyl)amino)-4-isopropyl-3-oxo-4,5-dihydro-3H-2,4,11,12a-tetraazabenzo[4,5]cycloocta[1,2,3-cd]indene-7-carbonitrile], the IC50 (in assay [1] (setting [4]); in the assay on Pfeiffer cell line (setting [5])) was below 10 nM throughout.
For `O=C1c2ncn3c(NCc4c(F)ccc5c4CCO5)ncc(c23)-c2cnc(C(F)(F)F)cc2CN1C1CCC1` [E 5, 4-cyclobutyl-12-(((5-fluoro-2,3-dihydrobenzofuran-4-yl)methyl)amino)-7-(trifluoromethyl)-4,5-dihydro-3H-2,4,8,11,12a-pentaazabenzo[4,5]cycloocta[1,2,3-cd]inden-3-one], the IC50 (in assay [1] (setting [4]); with Pfeiffer cell line (setting [5])) was below 10 nM each time.
Regarding `Cc1ccc2c(n1)CN(CC(F)F)C(=O)c1ncn3c(NCc4c(F)ccc5c4CCO5)ncc-2c13` [E 6, 4-(2,2-difluoroethyl)-12-(((5-fluoro-2,3-dihydrobenzofuran-4-yl)methyl)amino)-7-methyl-4,5-dihydro-3H-2,4,6,11,12a-pentaazabenzo[4,5]cycloocta[1,2,3-cd]inden-3-one], the IC50 (in assay [1] (setting [4]); in the assay on Pfeiffer cell line (setting [5])) was below 10 nM each time.
In the case of `O=C1c2ncn3c(NCc4c(F)ccc5c4CCO5)ncc(c23)-c2ccc(C(F)(F)F)nc2CN1CC(F)F` [E 8, 4-(2,2-difluoroethyl)-12-(((5-fluoro-2,3-dihydrobenzofuran-4-yl)methyl)amino)-7-(trifluoromethyl)-4,5-dihydro-3H-2,4,6,11,12a-pentaazabenzo[4,5]cycloocta[1,2,3-cd]inden-3-one], the IC50 (in assay [1] (setting [4]); with Pfeiffer cell line (setting [5])) was below 10 nM in each case.
For `Cc1cc2c(cn1)-c1cnc(NCc3c(F)ccc4c3CCO4)n3cnc(c13)C(=O)N(CC(F)F)C2` [E 9, 4-(2,2-difluoroethyl)-12-(((5-fluoro-2,3-dihydrobenzofuran-4-yl)methyl)amino)-7-methyl-4,5-dihydro-3H-2,4,8,11,12a-pentaazabenzo[4,5]cycloocta[1,2,3-cd]inden-3-one], the IC50 (in assay [1] (setting [4]); in the assay on Pfeiffer cell line (setting [5])) was below 10 nM throughout.
For the molecule `Cc1cnc2n1Cc1cc(C(F)(F)F)ncc1-c1cnc(NCc3c(F)ccc4c3CCO4)n3cnc-2c13` [E 10, N-((5-fluoro-2,3-dihydrobenzofuran-4-yl)methyl)-5-methyl-8-(trifluoromethyl)-6H-2,3,5a,9,12,13a-hexaazabenzo[4,5]cyclopenta[7,8]cycloocta[1,2,3-cd]inden-13-amine], the IC50 (in assay [1] (setting [4]); in the assay on Pfeiffer cell line (setting [5])) was 10 to 100 nM each time.
On to `CC(C)N1Cc2cc(C(F)F)ncc2-c2cnc(NCc3c(F)ccc4c3CCO4)n3cnc(c23)C1=O` [E 11, 7-(difluoromethyl)-12-(((5-fluoro-2,3-dihydrobenzofuran-4-yl)methyl)amino)-4-isopropyl-4,5-dihydro-3H-2,4,8,11,12a-pentaazabenzo[4,5]cycloocta[1,2,3-cd]inden-3-one], for which the IC50 (in assay [1] (setting [4]); with Pfeiffer cell line (setting [5])) was below 10 nM each time.
As to `CCc1ccc2c(n1)CN(CC(F)(F)F)C(=O)c1ncn3c(NCc4c(F)ccc5c4CCO5)ncc-2c13` [E 12, 7-ethyl-12-(((5-fluoro-2,3-dihydrobenzofuran-4-yl)methyl)amino)-4-(2,2,2-trifluoroethyl)-4,5-dihydro-3H-2,4,6,11,12a-pentaazabenzo[4,5]cycloocta[1,2,3-cd]inden-3-one], the IC50 (in assay [1] (setting [4]); in the assay on Pfeiffer cell line (setting [5])) was below 10 nM in each case.
Turning to `CCc1ccc2c(n1)CN(CC(F)F)C(=O)c1ncn3c(NCc4c(F)ccc5c4CCO5)ncc-2c13` [E 13, 4-(2,2-difluoroethyl)-7-ethyl-12-(((5-fluoro-2,3-dihydrobenzofuran-4-yl)methyl)amino)-4,5-dihydro-3H-2,4,6,11,12a-pentaazabenzo[4,5]cycloocta[1,2,3-cd]inden-3-one], the IC50 (in assay [1] (setting [4]); in the assay on Pfeiffer cell line (setting [5])) was below 10 nM throughout.
Consider `O=C1c2ncn3c(NCc4c(F)ccc5c4CCO5)ncc(c23)-c2ccc(C3CC3)nc2CN1CC(F)(F)F` [E 14, 7-cyclopropyl-12-(((5-fluoro-2,3-dihydrobenzofuran-4-yl)methyl)amino)-4-(2,2,2-trifluoroethyl)-4,5-dihydro-3H-2,4,6,11,12a-pentaazabenzo[4,5]cycloocta[1,2,3-cd]inden-3-one], for which the IC50 (in assay [1] (setting [4]); with Pfeiffer cell line (setting [5])) was below 10 nM in each case.
Regarding `CNC(=O)c1ncn2c(NCc3c(F)ccc(F)c3OC)ncc(-c3ccccc3)c12` [compound 138, 5-((3,6-difluoro-2-methoxybenzyl)amino)-N-methyl-8-phenylimidazo[1,5-c]pyrimidine-1-carboxamide], the IC50 in assay [1] (setting [2]) is above 100 nM.
In the case of `CNC(=O)c1ncn2c(NCc3cc(OC)ccc3F)ncc(-c3ccccc3)c12` [compound 139, 5-((2-fluoro-5-methoxybenzyl)amino)-N-methyl-8-phenylimidazo[1,5-c]pyrimidine-1-carboxamide], the IC50 in assay [1] (setting [2]) was above 100 nM.
Consider `CNC(=O)c1ncn2c(NCc3c(F)ccc(OC)c3Cl)ncc(-c3ccccc3)c12` [compound 140, 5-((2-chloro-6-fluoro-3-methoxybenzyl)amino)-N-methyl-8-phenylimidazo[1,5-c]pyrimidine-1-carboxamide], for which the IC50 in assay [1] (setting [2]) is above 100 nM.
For `CNC(=O)c1ncn2c(NCc3cccc4c3OCO4)ncc(-c3ccccc3)c12` [compound 141, 5-((benzo[d][1,3]dioxol-4-ylmethyl)amino)-N-methyl-8-phenylimidazo[1,5-c]pyrimidine-1-carboxamide], the IC50 in assay [1] (setting [2]) was above 100 nM.
For `CNC(=O)c1ncn2c(NCc3c(F)ccc4c3CCO4)ncc(-c3ccccc3)c12` [compound 142, 5-(((5-fluoro-2,3-dihydrobenzofuran-4-yl)methyl)amino)-N-methyl-8-phenylimidazo[1,5-c]pyrimidine-1-carboxamide], the IC50 in assay [1] (setting [2]) is above 100 nM.
